Data taken from ChEMBL document CHEMBL4706653, “Ultra-short lipopeptides against gram-positive bacteria while alleviating antimicrobial resistance” (Eur J Med Chem, 2021).
Active and inactive are the calls of the source. The calls are words filed in the database; no cut-off is given here. Residues, ends and D or L forms follow the SMILES beside them. *: point of attachment. Myristoyl = CCCCCCCCCCCCCC(=O)*; Lauroyl = CCCCCCCCCCCC(=O)*

Legend:
[1] = Stability in mouse serum assessed as parent compound remaining at volume ratio of 1:19 measured after 6 hrs by RP-HPLC analysis; format: ADME, cell-free; settings: read-out: Stabilty
HEK-293T = test: Cytotoxicity against HEK293T cells assessed as reduction in cell viability at 64 to 128 uM measured after 24 hrs by MTT assay; format: cell-based; settings: human, dose 64-128 µM
Cell membrane [2] = test: Induction of membrane disruption in Staphylococcus aureus ATCC 25923 assessed as PI-positive cells at 4 times MIC measured after 30 mins by propidium iodide staining based flow cytometry relative to control
Staphylococcus aureus [3] = test: Antimicrobial activity against Staphylococcus aureus ATCC 25923 assessed as bacterial killing at 2 times MIC preincubated for 2 hrs followed by replating on MHB agar and measured after 24 hrs by time kill assay; format: functional, organism-based; settings: time 26.0 hrs
Staphylococcus aureus [4] = test: Antimicrobial activity against Staphylococcus aureus ATCC 25923 assessed as reduction in bacterial growth at 0.5 times MIC preincubated for 4 hrs followed by replating on MHB agar and measured after 24 hrs by time kill assay; format: functional, organism-based; settings: time 28.0 hrs
Staphylococcus aureus [5] = test: Antibiofilm activity against Staphylococcus aureus ATCC 25923 preformed biofilm assessed as preformed biofilm thickness at 64 uM after 24 hrs using LIVE/LEAD (SYTO-9/PI) staining by confocal laser scanning microscopy based 3D image analysis (reference value: 56 micrometer); format: functional
Staphylococcus aureus [6] = test: Antimicrobial activity against Staphylococcus aureus ATCC 25923 assessed as reduction in bacterial growth at 0.5 to 1 times MIC preincubated for 4 hrs followed by replating on MHB agar and measured after 24 hrs by time kill assay; format: functional, organism-based; settings: time 28.0 hrs
Staphylococcus aureus [7] = test: Antimicrobial activity against Staphylococcus aureus ATCC 25923 assessed as bacterial killing at 4 times MIC preincubated for 30 mins followed by replating on MHB agar and measured after 24 hrs by time kill assay; format: functional, organism-based; settings: time 24.5 hrs
[8] = Toxicity in BALB/c mouse assessed as inflammatory cell infiltration in liver at 20 to 40 mg/kg, ip administered as single dose measured after 5 days; format: organism-based; settings: in vivo, 120 h, dose 20-40 mg/kg, time 5 day
Mus musculus [9] = test: Antiinflammatory activity in Staphylococcus aureus ATCC 25923 infected neutropenia BALB/c mouse assessed as reduction in TNFalpha level in serum at 10 to 20 mg/kg, ip administered staring from 2 hrs post infection and measured 8 hrs post-infected; format: functional, organism-based; settings: dose 10-20 mg/kg, time 6.0 hrs
Staphylococcus aureus [10] = test: Antimicrobial activity against Staphylococcus aureus ATCC 25923 infected in neutropenia BALB/c mouse assessed as reduction in bacterial load in liver at 10 to 20 mg/kg, ip administered staring from 2 hrs post infection and measured 8 hrs post-infected; format: functional, organism-based; settings: dose 10-20 mg/kg, time 6.0 hrs
Staphylococcus aureus [11] = test: Antimicrobial activity against Staphylococcus aureus ATCC 25923 infected in neutropenia BALB/c mouse assessed as reduction in bacterial load in liver at 10 mg/kg, ip administered staring from 2 hrs post infection and measured 8 hrs post-infected in presence of ciprofloxacin; format: functional, organism-based; settings: time 6.0 hrs
Cell membrane [12] = test: Induction of cytoplasmic membrane disruption in Staphylococcus aureus ATCC 25923 at 0.5 to 4 times MIC measured for 15 mins by DiSC3-5 dye based fluorescence assay
Staphylococcus aureus [13] = test: Antimicrobial activity against Staphylococcus aureus ATCC 25923 assessed as bacterial killing at MIC preincubated for 1 hr followed by replating on MHB agar and measured after 24 hrs by time kill assay; format: functional, organism-based; settings: time 25.0 hrs
Staphylococcus aureus [14] = test: Antimicrobial activity against Staphylococcus aureus ATCC 25923 assessed as bacterial killing at 2 to 4 times MIC preincubated for 30 mins followed by replating on MHB agar and measured after 24 hrs by time kill assay; format: functional, organism-based; settings: time 24.5 hrs
[15] = Toxicity in BALB/c mouse assessed as eosinophilic mass in the renal tubular lumen at 80 mg/kg, ip administered as single dose measured after 5 days; format: organism-based; settings: in vivo, 120 h, time 5 day
[16] = Toxicity in BALB/c mouse assessed as inflammatory cell infiltration in liver at 80 mg/kg, ip administered as single dose measured after 5 days; format: organism-based; settings: in vivo, 120 h, time 5 day
[17] = Toxicity in BALB/c mouse assessed as effect on body weight at 20 to 80 mg/kg, ip administered as single dose measured for 5 days; format: organism-based; settings: in vivo, 120 h, dose 20-80 mg/kg, time 5 day
Staphylococcus aureus [18] = test: Antimicrobial activity against Staphylococcus aureus ATCC 25923 assessed as bacterial killing at 0.5 times MIC preincubated for 4 hrs followed by replating on MHB agar and measured after 24 hrs by time kill assay; format: functional, organism-based; settings: time 28.0 hrs
Staphylococcus aureus [19] = test: Antimicrobial activity against Staphylococcus aureus ATCC 25923 infected in neutropenia BALB/c mouse assessed as reduction in bacterial load in kidney at 10 mg/kg, ip administered staring from 2 hrs post infection and measured 8 hrs post-infected in presence of ciprofloxacin; format: functional, organism-based; settings: time 6.0 hrs
[20] = Toxicity in BALB/c mouse assessed as swelling of renal tubular epithelial cells at 80 mg/kg, ip administered as single dose measured after 5 days; format: organism-based; settings: in vivo, 120 h, time 5 day
Staphylococcus aureus [21] = test: Antimicrobial activity against Staphylococcus aureus ATCC 25923 infected in neutropenia BALB/c mouse assessed as reduction in bacterial load in spleen at 10 to 20 mg/kg, ip administered staring from 2 hrs post infection and measured 8 hrs post-infected; format: functional, organism-based; settings: dose 10-20 mg/kg, time 6.0 hrs
[22] = Cytotoxicity against HEK293T cells assessed as cell viability at 128 uM measured after 24 hrs by MTT assay relative to control; format: cell-based, HEK-293T; settings: human, read-out: Activity
[23] = Toxicity in BALB/c mouse assessed as inflammatory cell infiltration in kidney at 80 mg/kg, ip administered as single dose measured after 5 days; format: organism-based; settings: in vivo, 120 h, time 5 day
[24] = Toxicity in BALB/c mouse assessed as ruffled fur at 80 mg/kg, ip administered as single dose measured for 5 days; format: organism-based; settings: in vivo, 120 h, time 5 day
Mus musculus [25] = test: Antiinflammatory activity in Staphylococcus aureus ATCC 25923 infected neutropenia BALB/c mouse assessed as reduction in TNFalpha level in serum at 10 mg/kg, ip administered staring from 2 hrs post infection and measured 8 hrs post-infected in presence of ciprofloxacin; format: functional, organism-based; settings: time 6.0 hrs
Staphylococcus aureus [26] = test: Antimicrobial activity against Staphylococcus aureus ATCC 25923 infected in neutropenia BALB/c mouse assessed as reduction in bacterial load in kidney at 10 to 20 mg/kg, ip administered staring from 2 hrs post infection and measured 8 hrs post-infected; format: functional, organism-based; settings: dose 10-20 mg/kg, time 6.0 hrs
Staphylococcus aureus [27] = test: Antimicrobial activity against Staphylococcus aureus ATCC 25923 infected in neutropenia BALB/c mouse assessed as reduction in lung bacterial load at 10 mg/kg, ip administered staring from 2 hrs post infection and measured 8 hrs post-infected in presence of ciprofloxacin; format: functional, organism-based; settings: time 6.0 hrs
Staphylococcus aureus [28] = test: Antimicrobial activity against Staphylococcus aureus ATCC 25923 infected in neutropenia BALB/c mouse assessed as reduction in bacterial load in spleen at 10 mg/kg, ip administered staring from 2 hrs post infection and measured 8 hrs post-infected in presence of ciprofloxacin; format: functional, organism-based; settings: time 6.0 hrs
[29] = Toxicity in BALB/c mouse assessed as effect on motility at 80 mg/kg, ip administered as single dose measured for 5 days; format: organism-based; settings: in vivo, 120 h, time 5 day
Staphylococcus aureus [30] = test: Antimicrobial activity against Staphylococcus aureus ATCC 25923 infected in neutropenia BALB/c mouse assessed as reduction in lung bacterial load at 10 to 20 mg/kg, ip administered staring from 2 hrs post infection and measured 8 hrs post-infected; format: functional, organism-based; settings: dose 10-20 mg/kg, time 6.0 hrs

For CCCCCCCCCCCC(=O)N[C@@H](CCCNC(=N)N)C(=O)N[C@@H](CCCNC(=N)N)C(=O)N[C@@H](Cc1c[nH]c2ccccc12)C(N)=O (Lauroyl-Arg-Arg-Trp-NH2), the remaining at 6 h [1] was 70%, the Activity (HEK-293T) was “Toxic” and the Activity (Cell membrane [2]) was 77.2%. For the same compound, the Activity (Staphylococcus aureus [3]) was “Active”, the Activity (Staphylococcus aureus [4]) was “Active” and the Activity (Staphylococcus aureus [5]) was 40 um. For the same compound, the Activity (Staphylococcus aureus [6]) was “inactive” and the Activity (Staphylococcus aureus [7]) was “Active”.

In the case of CCCCCCCCCCCCCC(=O)N[C@@H](CCCNC(=N)N)C(=O)N[C@@H](Cc1c[nH]c2ccccc12)C(=O)N[C@@H](Cc1c[nH]c2ccccc12)C(N)=O (Myristoyl-Arg-Trp-Trp-NH2), the Activity [8] was “Non-Toxic”, the Activity (Mus musculus [9]) was “Active” and the Activity (Staphylococcus aureus [10]) was “Active”. For the same compound, the Activity (Staphylococcus aureus [11]) was “Active”, the Activity (Cell membrane [12]) was “Active” and the Activity (Staphylococcus aureus [13]) was “Active”. For the same compound, the Activity (Staphylococcus aureus [14]) was “Active”, the Activity [15] was “Toxic” and the Activity [16] was “Toxic”. For the same compound, the Activity [17] was “Toxic”, the Activity (Staphylococcus aureus [18]) was “inactive” and the Activity (Staphylococcus aureus [19]) was “Active”. For the same compound, the Activity [20] was “Toxic”, the Activity (Staphylococcus aureus [21]) was “Active” and the viability at 24 h, 128 µM [22] was > 80%. The Activity [23] was “Toxic”, the Activity [24] was “Toxic” and the Activity (Mus musculus [25]) was “Active”. For the same compound, the Activity (Staphylococcus aureus [26]) was “Active”, the Activity (Staphylococcus aureus [27]) was “Active” and the Activity (Staphylococcus aureus [5]) was 24 um. For the same compound, the Activity (Staphylococcus aureus [28]) was “Active”, the Activity [29] was “Toxic” and the Activity (Staphylococcus aureus [30]) was “Active”.
